Data from patent US8809550B2, “Androgen receptor antagonists and uses thereof” (priority 2009, dated 2014).
Like-named read-outs stand apart in the source and are kept apart here.

Legend:
[1] = system: Prostate-specific Antigen (PSA) production in 22RV1 cells; experiment: PSA assay: inhibition of PSA production in 22RV1 cells (ELISA); format: cell-based; details: Homo sapiens, 72 h, R1881 1 ng/ml, three days
Protocol: (§1) PSA Assay (Inhibition Test of the Compound of the Present Invention on Prostate-Specific Antigen (PSA) Production in Various Prostate Cancer Cells)
Androgen dependent LNCaP and 22RV1 cells were purchased from the American Type Culture Collection (ATCC, Manassas, Va.). These cells were grown in RPMI 1640 medium supplemented with 10% fetal bovine serum (FBS), 100 U/mL penicillin, 100 μg/mL streptomycin, and 0.25 μg/mL amphotericin B. The cells were maintained at 37° C. and 5% CO2. LNCaP cells between passage 20 and 35, and 22RV1 cells between passage 30 and 50 were used for experiments. LNCaP is a hormone sensitive cell line, while 22RV1 is a hormone refractory prostate cancer cell line, which derived from a primary prostate tumor. This cell line was isolated from a xenograft (CWR22R-2152) that was serially propagated in mice after castration-induced regression and relapse of the parental, androgen-dependent CWR xenograft. For the PSA assay, human prostate cancer cells LNCaP or 22RV1 were seeded in a 96-well plate at a concentration of 5000 cells/100 μl/well. On the following day, Methyltrienolone (R1881, AR agonist) (final concentration 1 ng/ml), test compounds or bicalutamide (Casodex®, AstraZeneca) (final concentration 0.005 to 20 μM) were added. Three days after the addition, the concentration of PSA in the supernatant of the culture solution was measured by ELISA. ELISAs for human PSA in culture medium were performed using the ultra-sensitive assay procedure and reagents in the Active™ PSA assay kit (Diagnostic Systems Laboratories Inc., Webster, Tex.). Culture medium and standards (200 μl/well) were incubated in antibody-coated plates for 2 h at room temperature on a Titer plate shaker at 500-600 rpm. Wells were then washed five times. The HRP conjugate was diluted 1:20 with assay buffer, and 100 μl was added to all wells. The plates were incubated for 30 min at room temperature on the shaker and washed as before, and 100 μl TMB (3,3′,5,5′-tetramethylbenzidine, 0.4 g/l) was added. The plates were incubated for 10 min on the shaker, and the reaction was terminated with 100 μl stop solution. The plates were read using a plate reader at 450 nm with a 650 nm reference filter. PSA levels were normalized for differences in growth of LNCaP or 22RV1 cells following various treatments as determined by the MTS assay. IC50 of PSA was calculated based on a seven point assay (concentrations of tested compound) and expressed as micromolar (uM). […] ND means not determined

22RV1 cells = experiment: Cell viability assay, 22RV1 cells; format: cell-based, human; details: for cytotoxicity at 2.5 µM: Homo sapiens, read-out: Inhibition of cell viability, 22RV1 % inhibition at 2.5 uM
Protocol: (§2) LNCaP and 22RV1 cells were maintained in RPMI 1640 medium supplemented with 10% fetal bovine serum (FBS), 100 U/mL penicillin, 100 μg/mL streptomycin, and 0.25 μg/mL amphotericin B, splitting cells when they reached 80-90% confluence. In order to test compounds, 10,000 cells/well were plated in 96 cell culture plates using 100 ul/well plating medium, cultured overnight at 37° C. in a cell culture incubator. After carefully remove plating medium, 80 ul/well of pre-warmed assay medium was added, followed by adding 10 ul/well test compounds or bicalutamide (final concentration from 20 uM to 0.1 uM), incubated at 37° C. for 30 minutes, then adding 10 ul/well freshly prepared Methyltrienolone (R1881, AR agonist) (final concentration 1 ng/ml) to each well, incubate at 37° C. for 48-hour. At the end of incubation, 20 μl MTT (2.5 mg/ml in PBS) was added to each well, and the cells were further incubated for 2 h at 37 C to allow a complete reaction between the dye and the enzyme mitochondrial dehydrogenase in the viable cells. After removal of the residual dye and medium, 100 μl dimethylsulfoxide was added to each well, and the absorbance at 570 nm was measured with an microplate reader. The fold induction over background by 1 nM R1881 in the absence of test compounds is standardized as 100% and experimental result is expressed as percentage of inhibition by testing compounds at 2.5 micromolar (uM).

LNCaP cells = experiment: Cell viability assay, LNCaP cells; format: cell-based; details: Homo sapiens, read-out: Inhibition of cell viability, LNCaP % inhibition at 2.5 uM
Protocol: as §2

[2] = system: Prostate-specific Antigen (PSA) production in LNCaP cells; experiment: PSA assay: inhibition of PSA production in LNCaP cells (ELISA); format: cell-based; details: Homo sapiens; for IC50: 72 h, R1881 1 ng/ml, three days, seven point assay
Protocol: as §1
Androgen dependent LNCaP and 22RV1 cells were purchased from the American Type Culture Collection (ATCC, Manassas, Va.). These cells were grown in RPMI 1640 medium supplemented with 10% fetal bovine serum (FBS), 100 U/mL penicillin, 100 μg/mL streptomycin, and 0.25 μg/mL amphotericin B. The cells were maintained at 37° C. and 5% CO2. LNCaP cells between passage 20 and 35, and 22RV1 cells between passage 30 and 50 were used for experiments. LNCaP is a hormone sensitive cell line, while 22RV1 is a hormone refractory prostate cancer cell line, which derived from a primary prostate tumor. This cell line was isolated from a xenograft (CWR22R-2152) that was serially propagated in mice after castration-induced regression and relapse of the parental, androgen-dependent CWR xenograft. For the PSA assay, human prostate cancer cells LNCaP or 22RV1 were seeded in a 96-well plate at a concentration of 5000 cells/100 μl/well. On the following day, Methyltrienolone (R1881, AR agonist) (final concentration 1 ng/ml), test compounds or bicalutamide (Casodex®, AstraZeneca) (final concentration 0.005 to 20 μM) were added. Three days after the addition, the concentration of PSA in the supernatant of the culture solution was measured by ELISA. ELISAs for human PSA in culture medium were performed using the ultra-sensitive assay procedure and reagents in the Active™ PSA assay kit (Diagnostic Systems Laboratories Inc., Webster, Tex.). Culture medium and standards (200 μl/well) were incubated in antibody-coated plates for 2 h at room temperature on a Titer plate shaker at 500-600 rpm. Wells were then washed five times. The HRP conjugate was diluted 1:20 with assay buffer, and 100 μl was added to all wells. The plates were incubated for 30 min at room temperature on the shaker and washed as before, and 100 μl TMB (3,3′,5,5′-tetramethylbenzidine, 0.4 g/l) was added. The plates were incubated for 10 min on the shaker, and the reaction was terminated with 100 μl stop solution. The plates were read using a plate reader at 450 nm with a 650 nm reference filter. PSA levels were normalized for differences in growth of LNCaP or 22RV1 cells following various treatments as determined by the MTS assay. IC50 of PSA was calculated based on a seven point assay (concentrations of tested compound) and expressed as micromolar (uM). Results on 22RV1 cells are shown as percent inhibition at 2 micromolar (uM). ND means not determined

[3] = 22RV1 cells, 2.5 uM, R1881 1 ng/ml, 48-hour
[4] = LNCaP cells, 2.5 uM, R1881 1 ng/ml, 48-hour

COc1c(C#N)ccc(N2C(=O)C(C)(C)N(c3ccc(F)cc3)C2=S)c1F [Example 19, 3-Fluoro-4-[3-(4-fluoro-phenyl)-4,4-dimethyl-5-oxo-2-thioxo-imidazolidin-1-yl]-2-methoxy-benzonitrile]
inhibition at 2 µM [1]: 72%
cytotoxicity at 2.5 µM (22RV1 cells; [3]): 63%
cytotoxicity at 2.5 µM (LNCaP cells; [4]): 87%
IC50 [2]: 290 nM

Cc1ccc(N2C(=S)N(c3ccc(C#N)c(C#N)c3)C(=O)C2(C)C)cc1 [Example 24, 4-(4,4-Dimethyl-5-oxo-2-thioxo-3-p-tolyl-imidazolidin-1-yl)-phthalonitrile]
inhibition at 2 µM [1]: 91%
cytotoxicity at 2.5 µM (22RV1 cells; 22Rv1, 48 h): 27%
cytotoxicity at 2.5 µM (LNCaP cells; LNCaP, 48 h): 47%
IC50 [2]: 200 nM

CNC(=O)c1ccc(N2C(=S)N(c3ccc(C#N)c(C(F)(F)F)c3F)C(=O)C23CCC3)cc1F [Example 10, 4-[7-(4-Cyano-2-fluoro-3-trifluoromethyl-phenyl)-8-oxo-6-thioxo-5,7-diaza-spiro[3.4]oct-5-yl]-2-fluoro-N-methyl-benzamide]
inhibition at 2 µM [1]: 78%
cytotoxicity at 2.5 µM (22RV1 cells; 22Rv1, 48 h): 69%
cytotoxicity at 2.5 µM (LNCaP cells; LNCaP, 48 h): 91%
IC50 [2]: 380 nM

CC(O)(CS(=O)(=O)c1ccc(F)cc1)C(=O)Nc1ccc(C#N)c(C(F)(F)F)c1 (stereo not drawn) [Bicalutamide, bicalutamide, reference compound]
inhibition at 2 µM [1]: 18%
Inhibition of cell viability, 22RV1 % inhibition at 2.5 uM (22RV1 cells; [3]): <10%
cytotoxicity at 2.5 µM (22RV1 cells; [3]): < 10%
cytotoxicity at 2.5 µM (LNCaP cells; [4]): 21%
inhibition at 1 µM ([2]; 1 micromolar (summary text b205)): 34%
IC50 [2]: 3100 nM

COc1c(C#N)ccc(N2C(=O)C(C)(C)N(c3ccc(C#N)cc3)C2=S)c1F [Example 32, 4-(4,4-Dimethyl-5-oxo-2-thioxo-3-p-cyanophenyl-imidazolidin-1-yl)-3-fluoro-2-methoxy-benzonitrile]
inhibition at 2 µM [1]: 88%
cytotoxicity at 2.5 µM (22RV1 cells; [3]): 64%
cytotoxicity at 2.5 µM (LNCaP cells; [4]): 87%
IC50 [2]: 120 nM

CNC(=O)c1ccc(N2C(=S)N(c3ccc(C#N)c(OC)c3)C(=O)C23CCC3)cc1F [Example 2, 4-[7-(4-Cyano-3-methoxy-phenyl)-8-oxo-6-thioxo-5,7-diaza-spiro[3.4]oct-5-yl]-2-fluoro-N-methyl-benzamide]
inhibition at 2 µM [1]: 47%
cytotoxicity at 2.5 µM (22RV1 cells; 22Rv1, 48 h): 41%
cytotoxicity at 2.5 µM (LNCaP cells; LNCaP, 48 h): 59%
IC50 [2]: 450 nM

COc1c(C#N)ccc(N2C(=O)C(C)(C)N(c3ccc(C)nc3)C2=S)c1F [Example 20, 4-[4,4-Dimethyl-3-(6-methyl-pyridin-3-yl)-5-oxo-2-thioxo-imidazolidin-1-yl]-3-fluoro-2-methoxy-benzonitrile]
inhibition at 2 µM [1]: 69%
cytotoxicity at 2.5 µM (22RV1 cells; 22Rv1, 48 h): 44%
cytotoxicity at 2.5 µM (LNCaP cells; LNCaP, 48 h): 68%
IC50 [2]: 280 nM

CNC(=O)c1ccc(N2C(=S)N(c3ccc(C#N)c(Cl)c3F)C(=O)C2(C)C)cc1F [Example 11, 4-[3-(3-Chloro-4-cyano-2-fluoro-phenyl)-5,5-dimethyl-4-oxo-2-thioxo-imidazolidin-1-yl]-2-fluoro-N-methyl-benzamide]
inhibition at 2 µM [1]: 81%
cytotoxicity at 2.5 µM (22RV1 cells; 22Rv1, 48 h): 56%
cytotoxicity at 2.5 µM (LNCaP cells; LNCaP, 48 h): 85%
IC50 [2]: 230 nM

CC1(C)C(=O)N(c2ccc(C#N)c(Cl)c2F)C(=S)N1c1ccc(C#N)cc1 [Example 18, 4-(4,4-Dimethyl-5-oxo-2-thioxo-3-p-cyanophenyl-imidazolidin-1-yl)-3-fluoro-2-chloro-benzonitrile]
inhibition at 2 µM [1]: 89%
cytotoxicity at 2.5 µM (22RV1 cells; 22Rv1, 48 h): 57%
cytotoxicity at 2.5 µM (LNCaP cells; LNCaP, 48 h): 91%
IC50 [2]: 92 nM

CNC(=O)c1ccc(N2C(=S)N(c3ccc(C#N)cc3Cl)C(=O)C23CCC3)cc1F [Example 1, 4-[7-(2-Chloro-4-cyano-phenyl)-8-oxo-6-thioxo-5,7-diaza-spiro[3.4]oct-5-yl]-2-fluoro-N-methyl-benzamide]
inhibition at 2 µM [1]: 48%
cytotoxicity at 2.5 µM (22RV1 cells; 22Rv1, 48 h): 31%
cytotoxicity at 2.5 µM (LNCaP cells; LNCaP, 48 h): 70%
IC50 [2]: 2400 nM
